PubChem BioAssay (NCI)
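Here, GI50 denotes the concentration required for 50% inhibition of growth. At the TGI there is no net growth.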

Experiments:
Test in all cases: inhibition of tumour cell growth, NCI panel, 384-well format
786-0 renal = system: 786-0 renal
A498 renal = system: A498 renal
A549 NSCLC = system: A549 NSCLC
ACHN renal = system: ACHN renal
BT-549 breast = system: BT-549 breast
CAKI-1 renal = system: CAKI-1 renal
CCRF-CEM leukemia = system: CCRF-CEM leukemia
COLO 205 colon = system: COLO 205 colon
DU-145 prostate = system: DU-145 prostate
HCC-2998 colon = system: HCC-2998 colon
HCT-116 colon = system: HCT-116 colon
HCT-15 colon = system: HCT-15 colon
HL-60(TB) leukemia = system: HL-60(TB) leukemia
HOP-62 NSCLC = system: HOP-62 NSCLC
HOP-92 NSCLC = system: HOP-92 NSCLC
HT29 colon = system: HT29 colon
IGROV1 ovarian = system: IGROV1 ovarian
K-562 leukemia = system: K-562 leukemia
KM12 colon = system: KM12 colon
LOX IMVI melanoma = system: LOX IMVI melanoma
M14 melanoma = system: M14 melanoma
MALME-3M melanoma = system: MALME-3M melanoma
MCF7 breast = system: MCF7 breast
MDA-MB-231 breast = system: MDA-MB-231 breast
MDA-MB-435 melanoma = system: MDA-MB-435 melanoma
MDA-MB-468 breast = system: MDA-MB-468 breast
MOLT-4 leukemia = system: MOLT-4 leukemia
NCI-H226 lung = system: NCI-H226 lung
NCI-H23 lung = system: NCI-H23 lung
NCI-H322M lung = system: NCI-H322M lung
NCI-H460 NSCLC = system: NCI-H460 NSCLC
NCI-H522 lung = system: NCI-H522 lung
NCI/ADR-RES ovarian = system: NCI/ADR-RES ovarian
OVCAR-3 ovarian = system: OVCAR-3 ovarian
OVCAR-4 ovarian = system: OVCAR-4 ovarian
OVCAR-5 ovarian = system: OVCAR-5 ovarian
OVCAR-8 ovarian = system: OVCAR-8 ovarian
PC-3 prostate = system: PC-3 prostate
RPMI-8226 leukemia = system: RPMI-8226 leukemia
RXF 393 renal = system: RXF 393 renal
SF-268 CNS = system: SF-268 CNS
SF-295 CNS = system: SF-295 CNS
SF-539 CNS = system: SF-539 CNS
SK-MEL-2 melanoma = system: SK-MEL-2 melanoma
SK-MEL-28 melanoma = system: SK-MEL-28 melanoma
SK-MEL-5 melanoma = system: SK-MEL-5 melanoma
SK-OV-3 ovarian = system: SK-OV-3 ovarian
SN12C renal = system: SN12C renal
SNB-19 CNS = system: SNB-19 CNS
SR leukemia = system: SR leukemia
SW-620 colon = system: SW-620 colon
T-47D breast = system: T-47D breast
TK-10 renal = system: TK-10 renal
U251 glioblastoma = system: U251 glioblastoma
UACC-257 melanoma = system: UACC-257 melanoma
UACC-62 melanoma = system: UACC-62 melanoma
UO-31 renal = system: UO-31 renal

Compound: COc1cccc2c1C(=N)c1c(O)c3c(c(O)c1C2=O)C[C@@](O)(C(C)=O)C[C@@H]3O[C@H]1C[C@H](N)[C@H](O)[C@H](C)O1
- GI50 ([…]-0 renal): 86.9 nM
- TGI (786-0 renal): 244 nM
- GI50 (A498 renal): 91.9 nM
- TGI (A498 renal): 1070 nM
- GI50 (A549 NSCLC): 76.1 nM
- TGI (A549 NSCLC): 334 nM
- GI50 (ACHN renal): 120 nM
- TGI (ACHN renal): 567 nM
- GI50 (BT-549 breast): 116 nM
- TGI (BT-549 breast): 335 nM
- GI50 (CAKI-1 renal): 90.9 nM
- TGI (CAKI-1 renal): 668 nM
- GI50 (CCRF-CEM leukemia): 10.3 nM
- TGI (CCRF-CEM leukemia): 22.8 nM
- GI50 (COLO 205 colon): 44.8 nM
- TGI (COLO 205 colon): 231 nM
- GI50 (DU-145 prostate): 108 nM
- TGI (DU-145 prostate): 399 nM
- GI50 (HCC-2998 colon): 114 nM
- TGI (HCC-2998 colon): 272 nM
- GI50 (HCT-116 colon): 46.7 nM
- TGI (HCT-116 colon): 1010 nM
- GI50 (HCT-15 colon): 417 nM
- TGI (HCT-15 colon): 1560 nM
- GI50 (HL-60(TB) leukemia): < 10 nM
- TGI (HL-60(TB) leukemia): < 10 nM
- GI50 (HOP-62 NSCLC): 51.3 nM
- TGI (HOP-62 NSCLC): 173 nM
- GI50 (HOP-92 NSCLC): 62.9 nM
- TGI (HOP-92 NSCLC): 278 nM
- GI50 (HT29 colon): 119 nM
- TGI (HT29 colon): 250 nM
- GI50 (IGROV1 ovarian): 343 nM
- TGI (IGROV1 ovarian): 2010 nM
- GI50 (K-562 leukemia): 90.4 nM
- TGI (K-562 leukemia): 452 nM
- GI50 (KM12 colon): 66 nM
- TGI (KM12 colon): 206 nM
- GI50 (LOX IMVI melanoma): 144 nM
- TGI (LOX IMVI melanoma): 338 nM
- GI50 (M14 melanoma): 73.6 nM
- TGI (M14 melanoma): 445 nM
- GI50 (MALME-3M melanoma): 220 nM
- TGI (MALME-3M melanoma): 953 nM
- GI50 (MCF7 breast): 61.2 nM
- TGI (MCF7 breast): 1360 nM
- GI50 (MDA-MB-231 breast): 181 nM
- TGI (MDA-MB-231 breast): 379 nM
- GI50 (MDA-MB-435 melanoma): 166 nM
- TGI (MDA-MB-435 melanoma): 1090 nM
- GI50 (MDA-MB-468 breast): 41.8 nM
- TGI (MDA-MB-468 breast): 153 nM
- GI50 (MOLT-4 leukemia): < 10 nM
- TGI (MOLT-4 leukemia): < 10 nM
- GI50 (NCI-H226 lung): 124 nM
- TGI (NCI-H226 lung): 318 nM
- GI50 (NCI-H23 lung): 47.9 nM
- TGI (NCI-H23 lung): 200 nM
- GI50 (NCI-H322M lung): 637 nM
- TGI (NCI-H322M lung): 2080 nM
- GI50 (NCI-H460 NSCLC): 28.2 nM
- TGI (NCI-H460 NSCLC): 126 nM
- GI50 (NCI-H522 lung): 55.3 nM
- TGI (NCI-H522 lung): 206 nM
- GI50 (NCI/ADR-RES ovarian): 7530 nM
- TGI (NCI/ADR-RES ovarian): 25400 nM
- GI50 (OVCAR-3 ovarian): 102 nM
- TGI (OVCAR-3 ovarian): 353 nM
- GI50 (OVCAR-4 ovarian): 387 nM
- TGI (OVCAR-4 ovarian): 1370 nM
- GI50 (OVCAR-5 ovarian): 179 nM
- TGI (OVCAR-5 ovarian): 583 nM
- GI50 (OVCAR-8 ovarian): 42.9 nM
- TGI (OVCAR-8 ovarian): 745 nM
- GI50 (PC-3 prostate): 224 nM
- TGI (PC-3 prostate): 1330 nM
- GI50 (RPMI-8226 leukemia): < 10 nM
- TGI (RPMI-8226 leukemia): 22.3 nM
- GI50 (RXF 393 renal): 41.7 nM
- TGI (RXF 393 renal): 147 nM
- GI50 (SF-268 CNS): 59.9 nM
- TGI (SF-268 CNS): 262 nM
- GI50 (SF-295 CNS): 103 nM
- TGI (SF-295 CNS): 345 nM
- GI50 (SF-539 CNS): 36.6 nM
- TGI (SF-539 CNS): 119 nM
- GI50 (SK-MEL-2 melanoma): 184 nM
- TGI (SK-MEL-2 melanoma): 345 nM
- GI50 (SK-MEL-28 melanoma): 131 nM
- TGI (SK-MEL-28 melanoma): 468 nM
- GI50 (SK-MEL-5 melanoma): 97.3 nM
- TGI (SK-MEL-5 melanoma): 437 nM
- GI50 (SK-OV-3 ovarian): 88.4 nM
- TGI (SK-OV-3 ovarian): 270 nM
- GI50 (SN12C renal): 48.7 nM
- TGI (SN12C renal): 185 nM
- GI50 (SNB-19 CNS): 63.3 nM
- TGI (SNB-19 CNS): 376 nM
- GI50 (SR leukemia): < 10 nM
- TGI (SR leukemia): < 10 nM
- GI50 (SW-620 colon): 42.8 nM
- TGI (SW-620 colon): 281 nM
- GI50 (T-47D breast): 61.1 nM
- TGI (T-47D breast): 451 nM
- GI50 (TK-10 renal): 128 nM
- TGI (TK-10 renal): 403 nM
- GI50 (U251 glioblastoma): 50.9 nM
- TGI (U251 glioblastoma): 187 nM
- GI50 (UACC-257 melanoma): 455 nM
- TGI (UACC-257 melanoma): 1820 nM
- GI50 (UACC-62 melanoma): 71.6 nM
- TGI (UACC-62 melanoma): 466 nM
- GI50 (UO-31 renal): 707 nM
- TGI (UO-31 renal): 2090 nM
